The text below walks through data of patent publication US20230257393A1, “MACROMOLECULE-SUPPORTED THIENOAZEPINE COMPOUNDS, AND USES THEREOF” (BOLT BIOTHERAPEUTICS, INC., priority 2020, published 2023).

Structures are written as SMILES. Like-named read-outs stand apart in the source and are kept apart here.

By EC50 is commonly meant the concentration at which the effect is half-maximal.

In assay [1] the target is T1, human TLR7 (Homo sapiens, UniProt Q9NYK1).
T1 construct: host or cells: HEK293 reporter cells
T1 sequence (Q9NYK1 27-1049): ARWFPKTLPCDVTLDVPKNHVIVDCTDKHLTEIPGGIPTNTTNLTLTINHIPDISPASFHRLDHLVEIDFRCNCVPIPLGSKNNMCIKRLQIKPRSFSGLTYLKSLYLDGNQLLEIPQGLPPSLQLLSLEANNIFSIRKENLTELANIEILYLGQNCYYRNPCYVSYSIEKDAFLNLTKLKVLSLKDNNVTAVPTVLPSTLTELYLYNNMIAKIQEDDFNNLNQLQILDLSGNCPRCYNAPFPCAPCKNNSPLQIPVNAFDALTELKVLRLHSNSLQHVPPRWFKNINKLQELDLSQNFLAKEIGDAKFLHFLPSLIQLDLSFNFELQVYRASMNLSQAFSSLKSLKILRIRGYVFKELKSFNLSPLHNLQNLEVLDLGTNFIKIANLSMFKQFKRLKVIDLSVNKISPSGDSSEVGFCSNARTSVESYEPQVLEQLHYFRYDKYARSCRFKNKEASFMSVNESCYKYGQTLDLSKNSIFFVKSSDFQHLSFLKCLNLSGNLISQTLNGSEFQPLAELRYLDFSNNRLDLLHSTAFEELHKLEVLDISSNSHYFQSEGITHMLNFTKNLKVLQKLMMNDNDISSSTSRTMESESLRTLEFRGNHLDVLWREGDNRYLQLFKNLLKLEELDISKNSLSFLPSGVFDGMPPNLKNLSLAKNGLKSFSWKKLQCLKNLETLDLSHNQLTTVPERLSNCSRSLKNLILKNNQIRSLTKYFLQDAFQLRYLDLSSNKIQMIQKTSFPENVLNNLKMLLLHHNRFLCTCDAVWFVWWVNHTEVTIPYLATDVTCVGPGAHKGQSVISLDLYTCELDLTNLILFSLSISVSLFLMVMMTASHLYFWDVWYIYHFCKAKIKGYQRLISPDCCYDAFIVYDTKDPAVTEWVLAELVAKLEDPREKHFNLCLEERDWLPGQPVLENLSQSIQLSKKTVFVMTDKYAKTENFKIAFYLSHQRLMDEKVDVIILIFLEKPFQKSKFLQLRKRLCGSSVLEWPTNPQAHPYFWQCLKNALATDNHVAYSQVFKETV
The experiment in a line: HEK Reporter Assay, HEK293 NFKB reporter cells expressing human TLR7. It is filed as cell-based. The settings on record: read-out: HEK293 hTLR7 EC50. The protocol:
(§1) Each compound was synthesized, purified, and characterized by mass spectrometry and shown to have the mass indicated. Additional experimental procedures are found in the Examples. Activity against HEK293 NFKB reporter cells expressing human TLR7 or human TLR8 was measured according to Example 202.
(§2) HEK293 reporter cells expressing human TLR7 or human TLR8 were purchased from Invivogen and vendor protocols were followed for cellular propagation and experimentation. Briefly, cells were grown to 80-85% confluence at 5% CO2 in DMEM supplemented with 10% FBS, Zeocin, and Blasticidin. Cells were then seeded in 96-well flat plates at 4×10^4 cells/well with substrate containing HEK detection medium and immunostimulatory molecules. Activity was measured using a plate reader at 620-655 nm wavelength.
In general terms: A reporter such as luciferase makes a cellular process visible.

Assay [2] addresses T2, human TLR8 (Homo sapiens, UniProt Q9NR97).
T2 construct: host or cells: HEK293 reporter cells
T2 sequence (Q9NR97 27-1041): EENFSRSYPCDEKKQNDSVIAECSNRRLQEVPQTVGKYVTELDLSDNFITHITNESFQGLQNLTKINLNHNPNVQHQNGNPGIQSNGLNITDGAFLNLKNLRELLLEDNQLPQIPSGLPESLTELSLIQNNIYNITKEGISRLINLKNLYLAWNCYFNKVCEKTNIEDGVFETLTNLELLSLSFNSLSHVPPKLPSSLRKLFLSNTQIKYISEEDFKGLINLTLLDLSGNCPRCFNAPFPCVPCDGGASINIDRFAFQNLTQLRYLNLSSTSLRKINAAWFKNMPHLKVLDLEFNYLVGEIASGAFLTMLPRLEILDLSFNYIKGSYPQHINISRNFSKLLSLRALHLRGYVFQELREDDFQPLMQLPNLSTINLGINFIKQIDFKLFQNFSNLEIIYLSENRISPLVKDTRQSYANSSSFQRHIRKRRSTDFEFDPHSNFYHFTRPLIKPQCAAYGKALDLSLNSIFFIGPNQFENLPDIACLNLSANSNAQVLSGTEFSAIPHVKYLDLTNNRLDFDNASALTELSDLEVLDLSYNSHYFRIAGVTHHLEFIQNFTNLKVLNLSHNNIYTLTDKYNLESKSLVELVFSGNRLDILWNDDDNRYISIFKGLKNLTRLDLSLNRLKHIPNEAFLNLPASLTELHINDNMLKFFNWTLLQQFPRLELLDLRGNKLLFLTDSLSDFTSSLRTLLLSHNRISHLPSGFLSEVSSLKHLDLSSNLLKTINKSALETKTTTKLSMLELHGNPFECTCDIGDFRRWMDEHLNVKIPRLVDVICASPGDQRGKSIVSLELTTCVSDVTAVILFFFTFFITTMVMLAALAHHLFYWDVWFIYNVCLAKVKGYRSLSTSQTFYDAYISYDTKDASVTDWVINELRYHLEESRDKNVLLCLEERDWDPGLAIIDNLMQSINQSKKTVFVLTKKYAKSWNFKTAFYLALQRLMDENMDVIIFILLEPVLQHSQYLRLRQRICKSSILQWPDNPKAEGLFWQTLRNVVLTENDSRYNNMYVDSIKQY
The experiment in a line: HEK Reporter Assay, HEK293 NFKB reporter cells expressing human TLR8. To be noted: read-out: HEK293 hTLR8 EC50. It is filed as cell-based. The protocol: as §1, §2

Turning to `CCCN(CCC)C(=O)C1=Cc2sccc2N=C(N)C1` [TAZ-2, 5-amino-N,N-dipropyl-6H-thieno[3,2-b]azepine-7-carboxamide], the EC50 in assay [1] (Table 1a) was greater than 9 µM.

Regarding `CCCN(CC#CCNC(=O)OC(C)(C)C)C(=O)C1=Cc2sc(Br)cc2N=C(N)C1` [TAZ-10, tert-butyl N-[4-[(5-amino-2-bromo-6H-thieno[3,2-b]azepine-7-carbonyl)-propyl-amino]but-2-ynyl]carbamate], the 50% effective concentration (EC50) in assay [2] (Table 1a) was greater than 9 µM.

On to `CCCN(CCC)C(=O)C1=Cc2sc(CCCCCN)cc2N=C(N)C1` [TAZ-14, 5-amino-2-(5-aminopentyl)-N,N-dipropyl-6H-thieno [3,2-b]azepine-7-carboxamide], for which, in assay [1] (Table 1a), the EC50 was greater than 9 µM.

Turning to `CCCN(CC#CCNC(=O)OC(C)(C)C)C(=O)C1=Cc2sccc2N=C(N)C1` [TAZ-16, tert-butyl N-[4-[(5-amino-6H-thieno[3,2-b]azepine-7-carbonyl)-propyl-amino]but-2-ynyl]carbamate], in assay [1] (Table 1a), the EC50 is greater than 9 µM.

Take `CCCN(CC#CCN)C(=O)C1=Cc2sccc2N=C(N)C1` [TAZ-17, 5-amino-N-(4-aminobut-2-ynyl)-N-propyl-6H-thieno[3,2-b]azepine-7-carboxamide]: the half-maximal effective concentration (EC50) in assay [1] (Table 1a) is greater than 9 µM.

Take `CCCN(Cc1ccc(CN)cc1)C(=O)C1=Cc2sccc2N=C(N)C1` [TAZ-30, 5-amino-N-(4-(aminomethyl)benzyl)-N-propyl-6H-thieno[3,2-b]azepine-7-carboxamide]: the EC50 in assay [1] (Table 1a) is greater than 9 µM.

In the case of `CCCN(Cc1ccc(CNC)cc1)C(=O)C1=Cc2sc(CCCCCN(C)C)cc2N=C(N)C1` [TAZ-65, 5-amino-2-[5-(dimethylamino)pentyl]-N-[[4-(methylaminomethyl)phenyl]methyl]-N-propyl-6H-thieno[3,2-b]azepine-7-carboxamide], the EC50 in assay [1] (Table 1b) was greater than 9 µM.

Turning to `CCCN(C[C@H]1C[C@H](CN)C1)C(=O)C1=Cc2sccc2N=C(N)C1` [TAZ-69], in assay [1] (Table 1b), the EC50 is greater than 9 µM.

With `CCCN(CCC)C(=O)C1=Cc2sc(COCCN)cc2N=C(N)C1` [TAZ-81], in assay [1] (Table 1b), the EC50 is greater than 9 µM.

Consider `CCCN(CCC)C(=O)C1=Cc2sc(CNC(=O)CN)cc2N=C(N)C1` [TAZ-92], for which the EC50 in assay [1] (Table 1b) was greater than 9 µM.

Regarding `CCCN(C[C@H]1CC[C@@H](CN)CC1)C(=O)C1=Cc2sccc2N=C(N)C1` [TAZ-118], in assay [1] (Table 1c), the EC50 is no less than 9 µM.

As for `CCCN(C[C@H]1CC[C@@H](CNC(=O)OC(C)(C)C)CC1)C(=O)C1=Cc2sccc2N=C(N)C1` [TAZ-119], the EC50 in assay [2] (Table 1c) was no less than 9 µM.

For `CCCN(C(=O)C1=Cc2sc(CCCCCNC(=O)OC(C)(C)C)cc2N=C(N)C1)C1CC1` [TAZ-123], the EC50 in assay [2] (Table 1c) was no less than 9 µM.

For `CCCN(CC1CC1)C(=O)C1=Cc2sc(CCCCCNC(=O)OC(C)(C)C)cc2N=C(N)C1` [TAZ-125], the EC50 in assay [2] (Table 1c) is no less than 9 µM.

Take `CCCN(Cc1cnc(CN(C)C)c(C(F)(F)F)c1)C(=O)C1=Cc2sc(CCCCCN)cc2N=C(N)C1` [TAZ-127]: in assay [1] (Table 1c), the EC50 is no less than 9 µM.

For `CCCN(CCCNC(=O)CC(C)(C)C)C(=O)C1=Cc2sc(CN3CCNCC3)cc2N=C(N)C1` [TAZ-139], in assay [2] (Table 1c), the EC50 was no less than 9 µM.

`CCCN(CCCNC(=O)C(C)(C)C)C(=O)C1=Cc2sc(CCCCCN)cc2N=C(N)C1` [TAZ-142]: in assay [2] (Table 1c), the EC50 is no less than 9 µM.

`CCCN(Cc1ccc(CN(C)C)cc1C(F)(F)F)C(=O)C1=Cc2sc(CCCCCNC(=O)OC(C)(C)C)cc2N=C(N)C1` [TAZ-143]: the EC50 in assay [2] (Table 1c) is no less than 9 µM.

Take `CCCN(CCCNC(=O)OC1CCC1)C(=O)C1=Cc2sc(C#CC3CCN(C(=O)OC(C)(C)C)CC3)cc2N=C(N)C1` [TAZ-165]: the EC50 in assay [1] (Table 1c) is no less than 9 µM.

As for `CCCN(CCC)C(=O)C1=Cc2scc(C)c2N=C(N)C1` [TAZ-168], the EC50 in assay [1] (Table 1c) was no less than 9 µM.

Take `CCCN(CCCNC(=O)OC1CCC1)C(=O)C1=Cc2sc(CN3CCNCC3)cc2N=C(N)C1` [TAZ-169]: the EC50 in assay [2] (Table 1c) is no less than 9 µM.

On to `CCCN(OCC)C(=O)C1=Cc2sc(C#CC3CCN(C(=O)OC(C)(C)C)CC3)cc2N=C(N)C1` [TAZ-173], for which the EC50 in assay [2] (Table 1c) is no less than 9 µM.

`CCCN(OCC)C(=O)C1=Cc2sc(CC3CCN(C(=O)OC(C)(C)C)CC3)cc2N=C(N)C1` [TAZ-179]: the EC50 in assay [1] (Table 1c) is no less than 9 µM.

With `CCCN(CCCNC(=O)OC1CCC1)C(=O)C1=Cc2sc(CN3CCN(c4ccc(C(=O)OC)cc4)CC3)cc2N=C(N)C1` [TAZ-180], in assay [2] (Table 1c), the EC50 was no less than 9 µM.

On to `CCCN(CCCNC(=O)OC1CCC1)C(=O)C1=Cc2sc(CC3CNC3)cc2N=C(N)C1` [TAZ-181], for which the EC50 in assay [2] (Table 1c) was no less than 9 µM.

Take `CCCN(CCCNC(=O)OC1CCC1)C(=O)C1=Cc2sc(CC3CCNCC3)cc2N=C(N)C1` [TAZ-185, cyclobutyl N-[3-[[5-amino-2-(4-piperidylmethyl)-6H-thieno[3,2-b]azepine-7-carbonyl]-propyl-amino]propyl]carbamate]: in assay [2] (Table 1c), the EC50 is no less than 9 µM.

Consider `CCCN(OCC)C(=O)C1=Cc2sc(C#CC3CN(C(=O)OC(C)(C)C)C3)cc2N=C(N)C1` [TAZ-187], for which, in assay [1] (Table 1c), the EC50 was no less than 9 µM.

With `CCCN(OCC)C(=O)C1=Cc2sc(C#CC3(O)CN(C(=O)OC(C)(C)C)C3)cc2N=C(N)C1` [TAZ-188], in assay [1] (Table 1c), the EC50 was no less than 9 µM.

For `CCCN(CCCNC(=O)OC1CCC1)C(=O)C1=Cc2sc(CCC3CNC3)cc2N=C(N)C1` [TAZ-197], in assay [2] (Table 1c), the half-maximal effective concentration (EC50) is no less than 9 µM.

`CCCN(OCC)C(=O)C1=Cc2sc(CN3Cc4ccc(NC(=O)CCN)cc4C3)cc2N=C(N)C1` [TAZ-201]: in assay [1] (Table 1c), the EC50 is no less than 9 µM.

As to `CCCN(OCC)C(=O)C1=Cc2sc(CN3CC(CN)C3)cc2N=C(N)C1` [TAZ-211], the EC50 in assay [1] (Table 1c) was no less than 9 µM.

Consider `CCCN(OCC)C(=O)C1=Cc2sc(CN3CCN(c4cccc(C(=O)OC(C)(C)C)c4)CC3)cc2N=C(N)C1` [TAZ-216], for which the half-maximal effective concentration (EC50) in assay [1] (Table 1c) is no less than 9 µM.

Regarding `CCCN(OCC)C(=O)C1=Cc2sc(CN3C[C@@H]4CN(C(=O)OC(C)(C)C)C[C@@H]4C3)cc2N=C(N)C1` [TAZ-242], the half-maximal effective concentration (EC50) in assay [1] (Table 1c) is no less than 9 µM.

With `CCCN(OCC)C(=O)C1=Cc2sc(CN3CCC(N)CC3)cc2N=C(N)C1` [TAZ-243], in assay [1] (Table 1c), the EC50 was no less than 9 µM.

For the compound `CCCN(OCC)C(=O)C1=Cc2sc(CN3CC4(CCN4Cc4ccccc4)C3)cc2N=C(N)C1` [TAZ-246], in assay [1] (Table 1c), the EC50 is no less than 9 µM.

In the case of `CCCN(OCC)C(=O)C1=Cc2sc(CN3C[C@H]4CNC[C@H]4C3)cc2N=C(N)C1` [TAZ-247], the EC50 in assay [1] (Table 1c) was no less than 9 µM.

For `CCCN(OCC)C(=O)C1=Cc2sc(CN3C[C@H]4CN(C(=O)OC(C)(C)C)C[C@@H]4C3)cc2N=C(N)C1` [TAZ-248], in assay [1] (Table 1c), the EC50 is no less than 9 µM.

In the case of `CCCN(Cc1ncco1)C(=O)C1=Cc2sc(CC3CNC3)cc2N=C(N)C1` [TAZ-256], the concentration giving a half-maximal response (EC50) in assay [1] (Table 1c) was no less than 9 µM.
